Converted amounts (≈) assume the structure as drawn. Read-outs that look alike come from different tables or passages of the source.
How the values were obtained:
Format in all cases: cell-based
[1] = system: Staphylococcus aureus (ATCC29213); experiment: In-vitro anti-bacterial microtitre plate assay, IC90 determination, Staphylococcus aureus; details: for IC90: read-out: IC90 STA 29213
Protocol: (§1) D.3. In-Vitro Method for Testing Compounds for Anti-Bacterial Activity Against Various Non-Mycobacterial Strains […] The bacteria used in this study were grown overnight in flasks containing 100 ml Mueller-Hinton Broth (Becton Dickinson-cat. no. 275730) in sterile de-ionized water, with shaking, at 37° C. Stocks (0.5 ml/tube) were stored at -70° C. until use. Bacteria titrations were performed in microtiter plates to detect the TCID50, in which the TCID50 represents the dilution that gives rise to bacterial growth in 50% of inoculated cultures. In general, an inoculum level of approximately 100 TCID50 was used for susceptibility testing. Anti Bacterial Susceptibility Testing: IC90 Determination Microtitre Plate Assay […] Depending on the bacteria type, approximately 10 to 60 CFU per well of bacteria inoculum (100 TCID50), in a volume of 100 μl in 2.8× Mueller-Hinton broth medium, was added to the rows […]. The same volume of broth medium without inoculum was added to column 12 in row A to H. The cultures were incubated at 37° C. for 24 hours under a normal atmosphere (incubator with open air valve and continuous ventilation). At the end of incubation, one day after inoculation, the bacterial growth was quantitated fluorometrically. Therefore resazurin (0.6 mg/ml) was added in a volume of 20 μl to all wells 3 hours after inoculation, and the plates were re-incubated overnight. A change in colour from blue to pink indicated the growth of bacteria. The fluorescence was read in a computer-controlled fluorometer (Cytofluor Biosearch) at an excitation wavelength of 530 nm and an emission wavelength of 590 nm. The % growth inhibition achieved by the compounds was calculated according to standard methods.

[2] = system: Streptococcus pneumoniae (ATCC6305); experiment: In-vitro anti-bacterial microtitre plate assay, IC90 determination, Streptococcus pneumoniae; details: for IC90: read-out: IC90 SPN 6305
Protocol: as §1

M. Smegmatis (ATCC607) = experiment: In-vitro anti-bacterial activity against strain M. Smegmatis ATCC607; details: for IC90: Mycolicibacterium smegmatis, read-out: IC90 MSM ATCC607
Protocol: D.2. In-Vitro Method for Testing Compounds for Anti-Bacterial Activity Against Strain M. Smegmatis ATCC607. Flat-bottom, sterile 96-well plastic microtiter plates were filled with 180 μl of sterile deionized water, supplemented with 0.25% BSA. […] Serial five-fold dilutions (45 μl in 180 μl) were made directly in the microtiter plates from column 2 to 11 using a customised robot system (Zymark Corp., Hopkinton, Mass.). Pipette tips were changed after every 3 dilutions to minimize pipetting errors with high hydrophobic compounds. […] Approximately 250 CFU per well of bacteria inoculum, in a volume of 100 μl in 2.8× Mueller-Hinton broth medium, was added to the rows […]. The same volume of broth medium without inoculum was added to column 12 in row A to H. The cultures were incubated at 37° C. for 48 hours in a humidified 5% CO2 atmosphere (incubator with open air valve and continuous ventilation). At the end of incubation, two days after inoculation, the bacterial growth was quantitated fluorometrically. Therefore Alamar Blue (10×) was added to all wells in a volume of 20 μl and plates were incubated for another 2 hours at […] The fluorescence was read in a computer-controlled fluorometer (Cytofluor, Biosearch) at an excitation wavelength of 530 nm and an emission wavelength of 590 nm (gain 30).

[3] = 90% inhibitory concentration for bacterial growth, Staphylococcus aureus ATCC29213, 24 hours, resazurin fluorescence
[4] = 90% inhibitory concentration for bacterial growth, Streptococcus pneumoniae ATCC6305, 24 hours, resazurin fluorescence
[5] = 90% inhibitory concentration for bacterial growth, M. Smegmatis ATCC607, 48 hours, Alamar Blue fluorescence

| Compound | IC90 STA 29213 [1, 3] [µg/mL] | IC90 SPN 6305 [2, 4] [µg/mL] | IC90 MSM ATCC607 (M. Smegmatis (ATCC607); [5]) [µg/mL] | also measured |
| --- | --- | --- | --- | --- |
| COc1nc2ccc(Br)cc2cc1C(O)(CCCN(C)C)c1cccc2ccccc12 (stereo not drawn) [Compound 1] | – | – | – | IC90 [1, 3]: 7.6 µg/mL (≈ 15.9 µM); IC90 [2, 4]: 8.53 µg/mL (≈ 17.8 µM); IC90 (M. Smegmatis (ATCC607); [5]): 1.91 µg/mL (≈ 3.98 µM) |
| COc1nc2ccc(Br)cc2cc1C(O)(CCCCN(C)C)c1cccc2ccccc12 (stereo not drawn) [Compound 2] | 39.20 (≈ 79.4 µM) | 9.85 (≈ 20 µM) | 7.82 (≈ 15.8 µM) | – |
| COc1nc2ccc(Br)cc2cc1C(O)(CCCCCN(C)C)c1cccc2ccccc12 (stereo not drawn) [Compound 3] | 8.04 (≈ 15.8 µM) | 10.13 (≈ 20 µM) | 11.36 (≈ 22.4 µM) | – |
| COc1nc2ccc(-c3ccccc3)cc2cc1C(O)(CCCN(C)C)c1cccc2ccccc12 (stereo not drawn) [Compound 4] | – | – | – | IC90 ([1]; Staphylococcus aureus, ATCC29213, 24 h): 1.51 µg/mL (≈ 3.17 µM); IC90 ([2]; Streptococcus pneumoniae, ATCC6305, 24 h): 1.51 µg/mL (≈ 3.17 µM); IC90 (M. Smegmatis (ATCC607); ATCC607, 48 h): 1.51 µg/mL (≈ 3.17 µM) |
| COc1nc2ccc(-c3ccccc3)cc2cc1C(O)(CCCCN(C)C)c1cccc2ccccc12 (stereo not drawn) [Compound 5] | 38.97 (≈ 79.4 µM) | 49.07 (≈ 100 µM) | 7.78 (≈ 15.9 µM) | – |
| COc1nc2ccc(-c3ccccc3)cc2cc1C(O)(CCCCCN(C)C)c1cccc2ccccc12 (stereo not drawn) [Compound 6] | 8.00 (≈ 15.9 µM) | 10.07 (≈ 20 µM) | 6.35 (≈ 12.6 µM) | – |
| COc1ccccc1-c1ccc2nc(OC)c(C(O)(CCCN(C)C)c3cccc4ccccc34)cc2c1 (stereo not drawn) [Compound 7] | 1.60 (≈ 3.16 µM) | 1.8 (≈ 3.55 µM) | 1.60 (≈ 3.16 µM) | – |
| COc1ccccc1-c1ccc2nc(OC)c(C(O)(CCCCN(C)C)c3cccc4ccccc34)cc2c1 (stereo not drawn) [Compound 8] | 8.25 (≈ 15.8 µM) | 10.39 (≈ 20 µM) | 6.55 (≈ 12.6 µM) | – |
| COc1ccccc1-c1ccc2nc(OC)c(C(O)(CCCCCN(C)C)c3cccc4ccccc34)cc2c1 (stereo not drawn) [Compound 9] | 8.47 (≈ 15.8 µM) | 8.47 (≈ 15.8 µM) | 8.47 (≈ 15.8 µM) | – |
| COc1nc2ccc(-c3ccoc3)cc2cc1C(O)(CCCN(C)C)c1cccc2ccccc12 (stereo not drawn) [Compound 10] | 1.66 (≈ 3.56 µM) | 3.30 (≈ 7.07 µM) | 1.48 (≈ 3.17 µM) | – |
| COc1nc2ccc(-c3ccoc3)cc2cc1C(O)(CCCCN(C)C)c1cccc2ccccc12 (stereo not drawn) [Compound 11] | 7.62 (≈ 15.9 µM) | 9.59 (≈ 20 µM) | 7.62 (≈ 15.9 µM) | – |
| COc1nc2ccc(-c3ccoc3)cc2cc1C(O)(CCCCCN(C)C)c1cccc2ccccc12 (stereo not drawn) [Compound 12] | 1.56 (≈ 3.15 µM) | 1.76 (≈ 3.56 µM) | 1.56 (≈ 3.15 µM) | – |
| COc1nc2ccc(-c3cccs3)cc2cc1C(O)(CCCN(C)C)c1cccc2ccccc12 (stereo not drawn) [Compound 13] | 1.53 (≈ 3.17 µM) | 1.71 (≈ 3.54 µM) | 1.53 (≈ 3.17 µM) | – |
| COc1nc2ccc(-c3cccs3)cc2cc1C(O)(CCCCN(C)C)c1cccc2ccccc12 (stereo not drawn) [Compound 14] | 39.45 (≈ 79.4 µM) | 49.67 (≈ 100 µM) | 15.71 (≈ 31.6 µM) | – |
| COc1nc2ccc(-c3cccs3)cc2cc1C(O)(CCCCCN(C)C)c1cccc2ccccc12 (stereo not drawn) [Compound 15] | 51.07 (≈ 100 µM) | 51.07 (≈ 100 µM) | 45.52 (≈ 89.1 µM) | – |
| COc1nc2ccc(-c3cccnc3)cc2cc1C(O)(CCCN(C)C)c1cccc2ccccc12 (stereo not drawn) [Compound 16] | 7.57 (≈ 15.8 µM) | 7.57 (≈ 15.8 µM) | 1.51 (≈ 3.16 µM) | – |
| COc1nc2ccc(-c3cccnc3)cc2cc1C(O)(CCCCN(C)C)c1cccc2ccccc12 (stereo not drawn) [Compound 17] | 49.16 (≈ 100 µM) | 49.16 (≈ 100 µM) | 49.16 (≈ 100 µM) | – |
| COc1nc2ccc(-c3cccnc3)cc2cc1C(O)(CCCCCN(C)C)c1cccc2ccccc12 (stereo not drawn) [Compound 18] | 8.01 (≈ 15.8 µM) | 8.99 (≈ 17.8 µM) | 8.01 (≈ 15.8 µM) | – |
| COc1nc2ccc(-c3cc4ccccc4o3)cc2cc1C(O)(CCCN(C)C)c1cccc2ccccc12 (stereo not drawn) [Compound 19] | 3.66 (≈ 7.08 µM) | 8.19 (≈ 15.9 µM) | 3.26 (≈ 6.31 µM) | – |
| COc1nc2ccc(-c3cc4ccccc4o3)cc2cc1C(O)(CCCCCN(C)C)c1cccc2ccccc12 (stereo not drawn) [Compound 20] | 1.72 (≈ 3.16 µM) | 1.72 (≈ 3.16 µM) | 1.72 (≈ 3.16 µM) | – |

Reference: patent US20110166179A1, “ANTIBACTERIAL QUINOLINE DERIVATIVES” (priority 2007, published 2011)
